These are literature values, as cited in patent US20110178167A1, “METHOD FOR INHIBITING ACTIVITY AND/OR EXPRESSION OF MATRIX METALLOPROTEINASE, INHIBITING PHOSPHORYLATION OF MITOGEN-ACTIVATED PROTEIN KINASE, AND/OR PROMOTING EXPRESSION OF COLLAGEN USING TERMINALIA CATAPPA LEAF EXTRACT” (priority 2010, published 2011).

For this data set, the system named is matrix metalloproteinase-1. As to conditions: related art.

Take `O=c1cc(-c2ccc(O)c(-c3c(O)c(O)c(O)c4c(=O)cc(-c5ccc(O)cc5)oc34)c2)oc2cc(O)cc(O)c12` [sumaflavone]: the “expression of matrix metalloproteinase-1” value is on record as “inhibited”.

For `C[C@@H]1CC[C@]2(C(=O)O[C@@H]3O[C@H](CO)[C@@H](O)[C@H](O)[C@H]3O)CC[C@]3(C)C(=CC[C@@H]4[C@@]5(C)CC[C@H](O[C@@H]6OC[C@H](O)[C@H](O)[C@H]6O)C(C)(C)[C@@H]5CC[C@]43C)[C@@H]2[C@]1(C)O` [ziyuglycoside-I], the “expression of matrix metalloproteinase-1” value is “inhibited”.
